Laboratory results from the supplement of paper PMC11061612.

How the values were obtained:
Test in all cases: combination Emax (second highest fraction inhibited in the dose matrix, 72 h); higher = more inhibition; extreme values may be limits of the assay
[1] = system: YT (Other Blood Carcinomas)
How it was run: (§1)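 Cell lines in DMEM/F12 or RPMI with 10% FBS were plated in 1536-well plates, held 24 hours at 37°C, 5% CO2, then given two-drug dose matrices for 72 hours (DMSO typically 0.2%). Viability was read by CellTiter-Glo 2.0 luminescence and scaled as inhibition from 0 (vehicle wells) to 1 (blank wells). Combination Emax is the second-highest inhibition in the matrix; Bliss excess is observed combination effect minus expected EA + EB − EA·EB, EA and EB being single-agent effects.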

[2] = system: DOK (Oral Cavity Carcinoma)
How it was run: as §1

[3] = system: HLE (Hepatocellular Carcinoma)
How it was run: as §1

[4] = system: SNG-M (Endometrial Carcinoma)
How it was run: as §1

SK-MEL-1 (Melanoma) = system: SK-MEL-1 (Melanoma)
How it was run: as §1

[5] = system: GDM-1 (Acute Myeloid Leukemia)
How it was run: as §1

[6] = system: CAL-39 (Other Solid Carcinomas)
How it was run: as §1

[7] = system: HCC-827 (Lung Adenocarcinoma)
How it was run: as §1

[8] = system: PA-TU-8902 (Pancreatic Carcinoma)
How it was run: as §1

CS1 (Chondrosarcoma) = system: CS1 (Chondrosarcoma)
How it was run: as §1

D-392MG (Glioblastoma) = system: D-392MG (Glioblastoma)
How it was run: as §1

HuO9 (Osteosarcoma) = system: HuO9 (Osteosarcoma)
How it was run: as §1

MSTO-211H (Mesothelioma) = system: MSTO-211H (Mesothelioma)
How it was run: as §1

EW-22 (Ewing's Sarcoma) = system: EW-22 (Ewing's Sarcoma)
How it was run: as §1

[9] = system: NCI-H1688 (Small Cell Lung Carcinoma)
How it was run: as §1

[10] = system: SW948 (Colorectal Carcinoma)
How it was run: as §1

[11] = system: HCC1143 (Breast Carcinoma)
How it was run: as §1

[12] = system: EFM-192A (Breast Carcinoma)
How it was run: as §1

[13] = system: D-283MED (Other Solid Carcinomas)
How it was run: as §1

[14] = system: JHH-6 (Hepatocellular Carcinoma)
How it was run: as §1

Structure (SMILES) | combination Emax [1] | combination Emax [2] | combination Emax [3] | combination Emax [4] | combination Emax (SK-MEL-1 (Melanoma)) | combination Emax [5] | combination Emax [6] | combination Emax [7] | combination Emax [8] | combination Emax (CS1 (Chondrosarcoma)) | combination Emax (D-392MG (Glioblastoma)) | combination Emax (HuO9 (Osteosarcoma)) | combination Emax (MSTO-211H (Mesothelioma)) | combination Emax (EW-22 (Ewing's Sarcoma)) | combination Emax [9] | combination Emax [10] | combination Emax [11] | combination Emax [12] | combination Emax [13] | combination Emax [14]
COc1nnc2ccc(N3CCC(c4ccc(OCCN5CCN(C)C(=O)[C@H]5C)cc4)CC3)nn12 [AZD5153] + CC1(C)CCC(CN2CCN(c3ccc(C(=O)NS(=O)(=O)c4ccc(NCC5CCOCC5)c([N+](=O)[O-])c4)c(Oc4cnc5[nH]ccc5c4)c3)CC2)=C(c2ccc(Cl)cc2)C1 [Venetoclax] (first compound max 1 µM, 7x7, partner max 1 µM) | 0.714 | 0.431 | 0.336 | 0.548 | 0.625 | 1 | 0.631 | 0.348 | 0.275 | 0.408 | 0.45 | 0.796 | 0.271 | 0.6 | 0.384 | 0.513 | 0.357 | 0.326 | 0.835 | 0.463
COc1nnc2ccc(N3CCC(c4ccc(OCCN5CCN(C)C(=O)[C@H]5C)cc4)CC3)nn12 [AZD5153] + CCN(CCO)CCCOc1ccc2c(Nc3cc(CC(=O)Nc4cccc(F)c4)[nH]n3)ncnc2c1 [AZD2811] (first compound max 1 µM, 7x7, partner max 1 µM) | 0.666 | 0.544 | 0.521 | 0.502 | 0.556 | 0.952 | 0.691 | 0.43 | 0.323 | 0.46 | 0.456 | 0.673 | 0.26 | 0.787 | 0.389 | 0.65 | 0.431 | 0.361 | 0.9 | 0.552
COc1nnc2ccc(N3CCC(c4ccc(OCCN5CCN(C)C(=O)[C@H]5C)cc4)CC3)nn12 [AZD5153] + C[C@@H]1COCCN1C2=NC(=NC(=C2)C3(CC3)[S@](=N)(=O)C)C4=C5C=CNC5=NC=C4 [AZD6738] (first compound max 1 µM, 7x7, partner max 10 µM) | 0.923 | 0.569 | 0.689 | 0.901 | 0.689 | 0.943 | 0.797 | 0.578 | 0.392 | 0.661 | 0.514 | 0.938 | 0.359 | 0.927 | 0.633 | 0.675 | 0.824 | 0.524 | 0.995 | 0.705
COc1nnc2ccc(N3CCC(c4ccc(OCCN5CCN(C)C(=O)[C@H]5C)cc4)CC3)nn12 [AZD5153] + Cc1c2c(nn1C)CSCc1cc(n(C)n1)CSc1cc(c3ccccc3c1)OCCCc1c(C(=O)O)n(C)c3c-2c(Cl)ccc13 [AZD5991] (first compound max 1 µM, 7x7, partner max 1 µM) | 1 | 0.914 | 0.626 | 0.639 | 0.679 | 1 | 0.905 | 0.366 | 0.345 | 0.38 | 0.541 | 0.996 | 0.293 | 0.888 | 0.647 | 0.573 | 0.565 | 0.665 | 0.979 | 0.436
COc1nnc2ccc(N3CCC(c4ccc(OCCN5CCN(C)C(=O)[C@H]5C)cc4)CC3)nn12 [AZD5153] + Cn1cnc2c(F)c(Nc3ccc(Br)cc3Cl)c(C(=O)NOCCO)cc21 [Selumetinib] (first compound max 1 µM, 7x7, partner max 10 µM) | 0.693 | 0.648 | 0.341 | 0.632 | 0.983 | 0.823 | 0.827 | 0.375 | 0.527 | 0.469 | 0.569 | 0.706 | 0.41 | 0.517 | 0.384 | 0.752 | 0.513 | 0.304 | 0.849 | 0.507
Cc1c2c(nn1C)CSCc1cc(n(C)n1)CSc1cc(c3ccccc3c1)OCCCc1c(C(=O)O)n(C)c3c-2c(Cl)ccc13 [AZD5991] + C1CN(CCC1(C(=O)N[C@@H](CCO)C2=CC=C(C=C2)Cl)N)C3=NC=NC4=C3C=CN4 [Capivasertib] (first compound max 1 µM, 7x7, partner max 3 µM) | 1 | 0.383 | 0.279 | 0.333 | 0.118 | 0.454 | 0.384 | 0.314 | 0.174 | 0.255 | 0.495 | 1 | 0.245 | 0.624 | 0.322 | 0.569 | 0.252 | 0.67 | 0.367 | 0.278
Cc1c2c(nn1C)CSCc1cc(n(C)n1)CSc1cc(c3ccccc3c1)OCCCc1c(C(=O)O)n(C)c3c-2c(Cl)ccc13 [AZD5991] + C=CCn1c(=O)c2cnc(Nc3ccc(N4CCN(C)CC4)cc3)nc2n1-c1cccc(C(C)(C)O)n1 [AZD1775] (first compound max 1 µM, partner max 1 µM) | 0.998 | 0.758 | 0.849 | 0.733 | 0.402 | 0.961 | 0.677 | 0.401 | 0.31 | 0.563 | 0.417 | 1 | 0.596 | 0.789 | 0.601 | 0.714 | 0.797 | 0.71 | 0.971 | 0.326
Cc1c2c(nn1C)CSCc1cc(n(C)n1)CSc1cc(c3ccccc3c1)OCCCc1c(C(=O)O)n(C)c3c-2c(Cl)ccc13 [AZD5991] + CC1(C)CCC(CN2CCN(c3ccc(C(=O)NS(=O)(=O)c4ccc(NCC5CCOCC5)c([N+](=O)[O-])c4)c(Oc4cnc5[nH]ccc5c4)c3)CC2)=C(c2ccc(Cl)cc2)C1 [Venetoclax] (first compound max 1 µM, 7x7, partner max 1 µM) | 1 | 0.758 | 0.287 | 0.209 | 0.22 | 0.999 | 0.292 | 0.182 | 0.139 | 0.16 | 0.791 | 1 | 0.137 | 0.839 | 0.702 | 0.236 | 0.252 | 0.873 | 0.639 | 0.0668
Cc1c2c(nn1C)CSCc1cc(n(C)n1)CSc1cc(c3ccccc3c1)OCCCc1c(C(=O)O)n(C)c3c-2c(Cl)ccc13 [AZD5991] + CCN(CCO)CCCOc1ccc2c(Nc3cc(CC(=O)Nc4cccc(F)c4)[nH]n3)ncnc2c1 [AZD2811] (first compound max 1 µM, 7x7, partner max 1 µM) | 1 | 0.883 | 0.579 | 0.345 | 0.312 | 0.949 | 0.815 | 0.245 | 0.212 | 0.315 | 0.403 | 0.991 | 0.443 | 0.88 | 0.314 | 0.587 | 0.371 | 0.699 | 0.639 | 0.257
Cc1c2c(nn1C)CSCc1cc(n(C)n1)CSc1cc(c3ccccc3c1)OCCCc1c(C(=O)O)n(C)c3c-2c(Cl)ccc13 [AZD5991] + CN(C)CCCOc1ccc(-c2ccc3ncc4c(c3c2)n(C2CCOCC2)c(=O)n4C)cn1 [AZD0156] (first compound max 1 µM, 7x7, partner max 1 µM) | 1 | 0.331 | 0.39 | 0.209 | 0.261 | 0.549 | 0.515 | 0.345 | 0.192 | 0.235 | 0.252 | 1 | 0.188 | 0.512 | 0.276 | 0.296 | 0.364 | 0.587 | 0.36 | 0.188
Cc1c2c(nn1C)CSCc1cc(n(C)n1)CSc1cc(c3ccccc3c1)OCCCc1c(C(=O)O)n(C)c3c-2c(Cl)ccc13 [AZD5991] + C[C@@H]1COCCN1C2=NC(=NC(=C2)C3(CC3)[S@](=N)(=O)C)C4=C5C=CNC5=NC=C4 [AZD6738] (first compound max 1 µM, 7x7, partner max 10 µM) | 1 | 0.633 | 0.802 | 0.88 | 0.226 | 0.91 | 0.645 | 0.426 | 0.26 | 0.591 | 0.427 | 1 | 0.688 | 0.921 | 0.47 | 0.563 | 0.827 | 0.735 | 0.992 | 0.416
Cc1c2c(nn1C)CSCc1cc(n(C)n1)CSc1cc(c3ccccc3c1)OCCCc1c(C(=O)O)n(C)c3c-2c(Cl)ccc13 [AZD5991] + Cc1cc2ncnn2cc1Nc1ncc2c(n1)n(C1CCOCC1)c(=O)n2C [AZD7648] (first compound max 1 µM, 7x7, partner max 10 µM) | 1 | 0.421 | 0.515 | 0.299 | 0.303 | 0.619 | 0.58 | 0.288 | 0.321 | 0.207 | 0.271 | 1 | 0.194 | 0.504 | 0.297 | 0.436 | 0.267 | 0.692 | 0.435 | 0.219
